Data taken from patent US8716249B2, “Compositions and methods for improving cardiovascular health” (Energy Light LLC, priority 2008, dated 2014).
Like-named read-outs stand apart in the source and are kept apart here.

Key:
[1] = Comparison of EAA+arginine with fenofibrate in a similar population of elderly (FIG. 2)
[2] = cited from earlier work
[3] = patients with mixed hyperlipidemia, 80 mg atorvostatin daily or 200 mg fenofibrate

With CC(C)OC(=O)C(C)(C)Oc1ccc(C(=O)c2ccc(Cl)cc2)cc1 [fenofibrate] the “fall of plasma triglyceride concentration” value ([1]; fenofibrate treatment for 60 days) was “approximately 33%” and the “effect on liver triglyceride” value ([1]; treatment for 60 days) was “no significant effect”.
In the case of CC(C)c1c(C(=O)Nc2ccccc2)c(-c2ccccc2)c(-c2ccc(F)cc2)n1CC[C@@H](O)C[C@@H](O)CC(=O)O [atorvostatin], the “reduction of TGs” value [2, 3] is listed as 65% and the “reduction of VLDL” value [2, 3] is listed as 57%.
For Cc1ccc(C)c(OCCCC(C)(C)C(=O)O)c1 [gemfibrozil], the “time to maximal effects on TG” value ([2]; gemfibrozil treatment) is given as no more than 4 weeks, the “decrease of TG concentrations” value ([2]; patients with hypertryglyceridemia and hypercholesterolemia) is given as 45% and the “decrease of TG concentrations” value ([2]; patients with isolated hypercholesterolemia) is given as 38%.
